Common to all, as to format: cell-based
Data set [1] relates to murine RAW264.7 macrophages. The data set can be described thus: Confocal immunofluorescence of DNA damage-associated nuclear foci. The note with it: 24 h treatment; 20 ng/ml mIFN-γ, 100 ng/ml LPS or 10 μM CDDP (FIGS. 3A-3C). Here is the method:
Cells were grown on coverslips and were treated as indicated. After treatment, cells were rinsed twice, fixed with 10% neutral buffered formalin (Sigma-Aldrich) for 10 min and then permeabilized with 0.3% Triton X-100 in PBS for 15 min. Cells were then washed twice with PBS and were blocked with 10% FBS in PBS for 1 h at room temperature, followed by incubation with primary antibodies (1/100) in 10% FBS in PBS for 1 h30 min at room temperature. Then, samples were incubated with secondary antibodies using Alexa Fluor-488 green or Alexa Fluor-546 red (1/500, Life Technologies) and Hoechst 33342 for nuclei (1/1000, Thermo Fisher Scientific) in 10% FBS in PBS for 30 min at room temperature. Coverslips were mounted with Fluoromount-G (SouthernBiotech) ant then visualized with Leica TCS SPE confocal microscope (Leica Microsystemes, France).

The test system of data set [2] is murine RAW264.7 macrophages. The data set can be described thus: Immunoblots of ATMS1981*, ATM, IRF5 and NOX2 expression in murine RAW264.7 macrophages. The note with it: for ATM activation (ATMS1981*) by the agent / IRF5 expression induced by the agent: 24 hours, 10 μM CDDP, 200 ng/ml NCZ, 10 μM Olaparib (FIGS. 3E, 3H-3J). Here is the method:
(§1) The human monocyte cell line THP1 cells and the murine macrophage-like RAW264.7 cells were maintained in RMPI-1640-Glutamax medium (Life technology) supplemented with 10% heat-inactivated fetal bovine serum (Hycultec GmbH) and 100 UI/ml penicillin-streptomycin (Life technology). To obtain THP1 macrophages, THP1 monocytes were differentiated with 320 nM of PMA (Invivogen) during 24 h. Then, cells were washed three times to remove PMA and non-adherent cells. For the generation of monocytes-derived macrophages (hMDM), buffy coats from healthy donor blood were obtained from the French blood bank (Etablissement Français du Sang) under the control of convention with the INSERM. In accordance with French law, written informed consent for the use of cells for clinical research was obtained from each donor. Monocytes were obtained from buffy coats and were differentiated into macrophages by using human AB serum in macrophage medium, as previously described. […] All cells were maintained under 5% CO2 humidified atmosphere at 37° C. For hypoxic experiments, cells were incubated in the hypoxic hood (Scitive) under 1% 02, with 5% CO2 humidified atmosphere at 37° C. Dimethyl Sulfoxide (DMSO), Lipopolysaccharides (LPS), Dimethyloxalylglycine (DMOG), NAcetyl-L-cysteine (NAC), Diphenyleneiodonium chloride (DPI), Neocarzinostatin (NCZ), cis-Diammineplatinum(II) dichloride (CDDP) were purchased from Sigma-Aldrich. Recombinant murine IFN-γ (mIFN-γ) was obtained from PeproTech Recombinant Human IFN-γ was from R&D Systems. KU55933 was from Tocris Bioscience. Mn(III)tetrakis (4-benzoic acid) porphyrin Chloride (MnTBAP) was from Calbiochem. Olaparib was from Selleckchem. Phorbol 12-myristate 13-acetate (PMA) was from Invivogen.
(§2) Human MDM (10^6) were activated by treatment with […] recombinant human IFN-γ for 24 h. THP1 monocytes were differentiated into macrophages by 320 nM PMA for 24 h. Then, macrophages were activated with 20 ng/ml recombinant human IFN-γ or 100 ng/ml LPS during 24 h. RAW264.7 macrophages were activated with 20 ng/ml recombinant murine IFN-γ or 100 ng/ml LPS for 24 h.
(§3) Cells were seeded in 6-well plates, 12-well plates or 25 cm^2 flasks and irradiated with gamma-ray irradiator IBL-637 (Cs137, 1 Gy/min, gamma CIS-Bio International, IBA, Saclay, France) or with X-ray irradiator (1Gy/min, X-RAD 320, Precision X-Ray). Cells were harvested at indicated time points (hMDMs and THP1 macrophages at 96 h, RAW264.7 macrophages at 6 h) after irradiation for subsequent experiments.
(§4) Cells were washed twice with cold PBS and lysed with NEHN buffer (0.5% NP40, 20% Glycerol, 300 mM NaCl, 20 mM Herps, pH 7.5, and 1 mM EDTA) complemented with 2.5 mM DTT and the protease and phosphatase inhibitor (Roche) at 4° C. 5-20 μg of proteins were separated by NuPAGE 4-12% or 10% SDS-PAGE gel (Invitrogen) and then were transferred onto a nitrocellulose membrane (0.2 Micron, Bio-Rad). Membranes were blocked with 5% nonfat milk or 5% Bovine Serum Albumine (BSA) in Tris-buffered saline and 0.1% Tween 20 (TBS-T) at room temperature for 1 h and then subsequently probed with primary antibodies (1/5000-1/1000) overnight at 4° C. Then, membranes were incubated with appropriate horseradish peroxidase-conjugated anti-rabbit or anti-mouse IgG (SouthernBiotech) for 1 h at room temperature.

The test system of data set [3] is PMA-treated human THP1 monocytes. The data set can be described thus: Immunoblots of ATMS1981*, ATM, IRF5 and NOX2 expression in PMA-treated human THP1 monocytes. Conditions: for ATM activation (ATMS1981*) by the agent / IRF5 expression induced by the agent: 24 hours, 20 ng/ml human IFN-γ, 100 ng/ml LPS, 10 μM CDDP (FIGS. 3D, 3F, 3G). Here is the method:
as §1, §2, §3, §4
(A western blot detects proteins with antibodies after separation by electrophoresis.)

For data set [4], the system named is macrophages. The data set can be described thus: Macrophage viability (LDH release). Conditions: data not shown; cells and concentrations as in the activation experiments. An excerpt:
The release of LDH in the supernatants of cultured cells was detected using Cytotoxicity Detection KitPLUS (LDH) from Roche according to the manufacturers' instructions.
In general terms: LDH leaks from cells whose membrane has failed.

The subject of data set [5] is murine RAW264.7 macrophages. The data set can be described thus: Detection of ROS production (H2DCFDA staining, flow cytometry). Conditions: for ROS production after IR or mIFN-γ in presence of the inhibitor: 2 Gy single dose or 20 ng/ml mIFN-γ, NAC 1 μg/ml, DPI 200 nM. Here is the method:
Hydrogen peroxide and anion superoxide production were determined by staining cells with 5 μM of 2,7-dichlorodihydrofluorescein diacetate (H2DCFDA, Sigma) for 40 min at 37° C. Cells were then washed twice with Hanks' balanced salt solution (HBSS, from Thermo Fisher Scientific) and suspended in cold HBSS solution containing 1% FBS for FACS analysis.
Considering that reactive oxygen species (ROS) have been involved in both ATM activation and macrophage differentiation, the role of ROS production during macrophage activation was investigated.
A general note: Flow cytometry measures light scatter and fluorescence of single cells or particles in a stream.

For data set [6], the system named is hMDM. The data set can be described thus: Immunoblots of ATMS1981*, ATM, IRF5 and NOX2 expression in human monocyte-derived macrophages (hMDM). As for the experimental part: as §1, with “Dimethyl Sulfoxide (DMSO), Lipopolysaccharides (LPS), Dimethyloxalylglycine (DMOG), NAcetyl-L-cysteine (NAC), Diphenyleneiodonium chloride (DPI), Neocarzinostatin (NCZ), cis-Diammineplatinum(II) dichloride (CDDP) were purchased from Sigma-Aldrich. Recombinant murine IFN-γ (mIFN-γ) was obtained from PeproTech Recombinant Human IFN-γ was from R&D Systems. KU55933 was from Tocris Bioscience. Mn(III)tetrakis (4-benzoic acid) porphyrin Chloride (MnTBAP) was from Calbiochem. Olaparib was from Selleckchem. Phorbol 12-myristate 13-acetate (PMA) was from Invivogen.” left out

[7] abbreviates: 10 μM MnTBAP, 8 Gy single dose, 48 hours (FIG. 4G).
Where [8] appears, read: 10 μM Olaparib, 2 Gy, 6 hours (FIG. 2P).
Where [9] appears, read: 1 μg/ml NAC, 2 Gy, 6 hours or 20 ng/ml mIFN-γ, 24 hours (FIGS. 4E, 4F).

The values that follow come from patent US11603568B2, “NOX2 as a biomarker of radiotherapy efficiency in cancer patients” (Institut Gustave-Roussy, priority 2016, dated 2023).

Regarding `N.N.[Cl][Pt][Cl]` [Cisplatin, cis-Diammineplatinum(II) dichloride], the “ATMS1981*+ and γ-H2AX+ nuclear foci” value in data set [1] is given as “activated ATM”. Besides, in data set [2] (20 ng/ml mIFN-γ), the “ATM activation (ATMS1981*) by the agent” value was “activated ATM” and the “IRF5 expression induced by the agent” value was “increased IRF5 expression”. For the same molecule, in data set [3], the “ATM activation (ATMS1981*) by the agent” value was “activated ATM” and the “IRF5 expression induced by the agent” value is listed as “increased IRF5 expression”.

With `O=C(O)c1ccc(C2=C3C=CC(=N3)C(c3ccc(C(=O)O)cc3)=c3ccc([nH]3)=C(c3ccc(C(=O)O)cc3)c3ccc([n-]3)C(c3ccc(C(=O)O)cc3)c3ccc2[n-]3)cc1.[Cl-].[Mn+3]` (stereo not drawn) [MnTBAP, Mn(III)tetrakis (4-benzoic acid) porphyrin Chloride], the macrophage viability result in data set [4] is recorded as “without impacting macrophage viability”. Further, in data set [5], the “ROS production after IR or mIFN-γ in presence of the inhibitor” value (from here on “ROS production … of the inhibitor”) was “blunted the ROS production”. For the same molecule, in data set [3] (setting [7]), the “activating phosphorylation of ATM (ATMS1981*) after IR” value is given as “inhibited” and the “increased expression of IRF5 after IR” value was “reduced”.

On to `O=c1cc(-c2cccc3c2Sc2ccccc2S3)oc(N2CCOCC2)c1` [KU55933], for which, in data set [4], the macrophage viability result is listed as “without altering macrophage viability”. Moreover, the “γ-H2AX and ATMS1981* phosphorylations and the up-regulation of IRF5 expression after irradiation” value in data set [2] (20 μM KU55933, 2 Gy single dose, 6 hours (FIG. 2N)) is recorded as “impaired”; in data set [6] (10 μM KU55933, 4 Gy single dose, 96 hours (FIG. 2O)) it was “impaired”.

On to `c1ccc2c(c1)[I+]c1ccccc1-2` [DPI, Diphenyleneiodonium chloride], for which the macrophage viability entry in data set [4] is on record as “without modifying macrophage viability”. Also, the “ATMPS1981* and IRF5 up-regulation after IR or mIFN-γ” value in data set [2] (200 nM DPI, 2 Gy, 6 hours or 20 ng/ml mIFN-γ, 24 hours (FIGS. 5L, 5M)) is recorded as “impaired”. Further, the “ROS production … of the inhibitor” value in data set [5] is on record as “impaired”.

As for `COC(=O)CNC(=O)C(=O)OC` [DMOG, Dimethyloxalylglycine], in data set [2] (500 μM DMOG, 20 ng/ml mIFN-γ, 24 hours (FIG. 4K)), the “ATMS1981* and IRF5 expressions reduced after mIFN-γ stimulation” value is listed as “confirmed”. Besides, the “IR-mediated ATMS1981* and IRF5 expressions” value in data set [2] (500 μM DMOG, 2 Gy single dose, 6 hours (FIG. 4I)) is reported as “reduced”.

Turning to Neocarzinostatin, in data set [2] (20 ng/ml mIFN-γ), the “ATM activation (ATMS1981*) by the agent” value is “activated ATM” and the “IRF5 expression induced by the agent” value is reported as “increased IRF5 expression”.

On to `O=C(c1cc(Cc2n[nH]c(=O)c3ccccc23)ccc1F)N1CCN(C(=O)C2CC2)CC1` [Olaparib], for which, in data set [2] (setting [8]), the “ATM activation after irradiation” value is on record as “enhancement of ATM activation” and the “IRF5 expression after irradiation (inflammatory macrophage activation elicited by IR)” value is given as “increased expression of IRF5”. Besides, in data set [2] (20 ng/ml mIFN-γ), the “ATM activation (ATMS1981*) by the agent” value was “activated ATM” and the “IRF5 expression induced by the agent” value is “increased IRF5 expression”.

Turning to `CC(=O)N[C@@H](CS)C(=O)O` [NAC, NAcetyl-L-cysteine], in data set [4], the macrophage viability result is “without impacting macrophage viability”. In data set [2] (setting [9]), the “activating phosphorylation of ATM (ATMS1981*) after IR or mIFN-γ” value is reported as “inhibited” and the “increased expression of IRF5 after IR or mIFN-γ” value is “reduced”. Moreover, the “ROS production … of the inhibitor” value in data set [5] is given as “blunted the ROS production”.

B1: IFN-γ: Recombinant Human IFN-γ from R&D Systems, classical macrophage activator (protein, UniProt P01579 24-161, looked up)
Interferon gamma: QDPYVKEAENLKKYFNAGHSDVADNGTLFLGILKNWKEESDRKIMQSQIVSFYFKLFKNFKDDQSIQKSVETIKEDMNVKFFNSNKKKRDDFEKLTNYSVTDLNVQRKAIHELIQVMAELSPAAKTGKRKRSQMLFRG
Regarding B1, the “NOX2 up-regulated (immunoblot)” value in data set [6] (4 μg/ml hIFN-γ, 24 hours (FIG. 5B)) was “confirmed”; in data set [3] (20 ng/ml hIFN-γ, 24 hours (FIG. 5C)), “confirmed”. Also, the “ATM activation (ATMS1981*) by the agent” value in data set [3] was “activation of ATM”. In data set [3], the “IRF5 expression induced by the agent” value is “increased expression of IRF5”.

B2: mIFN-γ: Recombinant murine IFN-γ from PeproTech, classical macrophage activator (protein, UniProt P01580 23-155, looked up)
Interferon gamma: HGTVIESLESLNNYFNSSGIDVEEKSLFLDIWRNWQKDGDMKILQSQIISFYLRLFEVLKDNQAISNNISVIESHLITTFFSNSKAKKDAFMSIAKFEVNNPQVQRQAFNELIRVVHQLLPESSLRKRKRSRC
On to B2, for which the “ATMS1981*+ and γ-H2AX+ nuclear foci” value in data set [1] was “accumulation of ATMS1981*+ and γ-H2AX+ foci”. Further, the “NOX2 up-regulated (immunoblot)” value in data set [2] (20 ng/ml mIFN-γ, 24 hours (FIG. 5E)) is on record as “confirmed”. In addition, in data set [2] (20 ng/ml mIFN-γ), the “ATM activation (ATMS1981*) by the agent” value is given as “activation of ATM” and the “IRF5 expression induced by the agent” value is given as “increased expression of IRF5”. Also, in data set [5] (20 ng/ml mIFN-γ (FIGS. 4C, 4D)), the “ROS production induced by the treatment” value was “induced ROS production”.
